The values that follow come from PubChem BioAssay (NCI).

Holding throughout (experiment): DTP human tumour cell line panel, 48 h
The subject of experiment [1] is HOP-62 NSCLC.
Experiment [2] relates to IGROV1 ovarian.
In experiment [3] the test system is NCI-H460 lung.
Experiment [4] has as its system OVCAR-5 ovarian.
Experiment [5] relates to SF-268 CNS.
The subject of experiment [6] is SF-539 CNS.
Experiment [7] concerns SK-MEL-28 melanoma.
Experiment [8] deals with SNB-19 CNS.
In experiment [9] the test system is TK-10 renal.
Experiment [10] relates to UACC-257 melanoma.

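Compound exposure: 48 hours, 5 concentrations, 96-well plates. GI50 is the concentration that inhibits growth by half. Definition used: TGI = concentration required for complete inhibition of growth.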

What is called GI50 is the concentration at which growth is held to half of that of the control. As usually defined, the TGI is the concentration giving total growth inhibition. A lower TGI goes with greater sensitivity of the cells.

Take `CCCN1C(=O)/C(=C/c2ccc(SC(F)(F)F)cc2)SC1=Nc1ccc(OC)cc1`: the GI50 is 16.5 µM in experiment [1]; 29.6 µM in experiment [2]; 12.1 µM in experiment [3]; 7.84 µM in [4]; 11.3 µM in experiment [5]; 9.96 µM in [6]. Also, the GI50 is 28.4 µM in experiment [7], 17.4 µM in [8], 7.1 µM in [9] and 2.74 µM in [10]. The TGI in experiment [1] was more than 50 µM; in experiment [2] it was more than 50 µM; in [3], more than 50 µM; in [4], 24 µM; in experiment [5], 43.9 µM; in experiment [6] it was 21.6 µM. Besides, the TGI in experiment [7] was more than 50 µM; in experiment [8] it was more than 50 µM; in [9] it was 19.2 µM; in [10], 22.4 µM.

As to `Cc1c(Cl)ccc2c1NC(=O)C2(O)CC(=O)c1ccc(Cl)cc1` (centres undefined), the TGI in experiment [1] was more than 100 µM; in experiment [2] it was more than 100 µM; in experiment [3] it was more than 63.3 µM; in experiment [4], more than 100 µM; in experiment [5] it was more than 100 µM; in [6], more than 100 µM. Also, the TGI is more than 100 µM in [7], more than 100 µM in experiment [8], more than 100 µM in [9] and more than 55.9 µM in experiment [10].

`COc1ccc(-c2nsc3c2NC(=O)CC3c2ccsc2)cc1` (centres undefined): the GI50 was 0.371 µM in experiment [1]; 0.984 µM in experiment [2]; 0.228 µM in experiment [3]; 0.773 µM in experiment [4]; 1.34 µM in experiment [5]; 0.266 µM in experiment [6]. Besides, the GI50 in experiment [7] was 4.26 µM; in experiment [8], 1.05 µM; in [9], 13.8 µM; in experiment [10] it was 3.08 µM. Besides, the TGI in experiment [1] is more than 100 µM; in [2] it was more than 100 µM; in [3], 9.49 µM; in experiment [4] it was more than 100 µM; in experiment [5], more than 100 µM; in experiment [7], more than 100 µM. Further, the TGI in [8] is more than 100 µM; in experiment [9], more than 100 µM; in experiment [10], 38.4 µM.

As to `Cc1ccc(-c2nc(NCCOCCOCCN)nc(N3CCN(c4ccccn4)CC3)n2)cc1`, the GI50 is 16.7 µM in experiment [1]; 19.4 µM in experiment [2]; 13.9 µM in [3]; 16.9 µM in experiment [4]; 14.3 µM in [5]; 16.8 µM in [6]. The GI50 is 6.04 µM in experiment [7], 16.9 µM in experiment [8], 18.5 µM in [9] and 6.85 µM in experiment [10]. For the same molecule, the TGI in [1] is 31.4 µM; in experiment [2] it was 38 µM; in experiment [3], 29.9 µM; in experiment [4] it was 32.9 µM; in experiment [5], 29.9 µM; in experiment [6], 35.1 µM. Besides, the TGI in experiment [7] worked out at 12.4 µM; in [8], 34.9 µM; in experiment [9], 34.9 µM; in experiment [10] it was 15.5 µM.

Regarding `CCCC1C[C@H]2CCCCN2[C@H]2CCCN12` (some centres undefined), the TGI in [1], in [2], in experiment [3], in [4], in experiment [5] and in [6] was more than 100 µM in each case. Besides, the TGI in experiment [7], in experiment [8], in experiment [9] and in experiment [10] was more than 100 µM throughout.

For the molecule `Fc1ccccc1CN1COc2c(cc(Cl)c3cccnc23)C1`, the TGI is 16.6 µM in experiment [1]; 18.6 µM in [2]; more than 100 µM in experiment [3]; 15.3 µM in experiment [4]; 20.3 µM in experiment [5]; 10.6 µM in experiment [6]. In addition, the TGI amounted to 18.7 µM in experiment [7], 9.23 µM in experiment [8], 18 µM in [9] and 8.73 µM in experiment [10].

For the molecule `Cn1c(=O)c(-c2ccccc2Cl)cc2cnc(NC3CCOCC3)nc21`, the GI50 in experiment [1] was more than 25 µM; in experiment [2], 9.42 µM; in experiment [3] it was 11.1 µM; in experiment [4], 18.5 µM; in experiment [5], 14.6 µM; in [6] it was 11.1 µM. Besides, the GI50 in experiment [7] is 10.7 µM; in [8] it was more than 25 µM; in experiment [9] it was 6.19 µM; in [10], 14.8 µM. In addition, the TGI in experiment [1], in experiment [2], in experiment [3], in [4], in experiment [5] and in experiment [6] was more than 25 µM each time. Also, the TGI in experiment [7] is more than 25 µM; in [8] it was more than 25 µM; in experiment [9], more than 22.9 µM; in experiment [10], more than 25 µM.

Turning to `Cc1cc(NC(=O)NCc2ccc(N3C(N)=NC(N)=NC3(C)C)cc2)ccc1S(=O)(=O)F`, the GI50 is 12.8 µM in [1]; 0.388 µM in [2]; 0.252 µM in [3]; more than 25.4 µM in experiment [4]; 0.682 µM in [5]; 2.38 µM in experiment [6]. Further, the GI50 in experiment [7] was 17.7 µM; in experiment [8] it was 11.7 µM; in [9] it was 5.5 µM; in experiment [10], 33.6 µM. In addition, the TGI in experiment [1] was more than 100 µM; in experiment [2], more than 100 µM; in [3], more than 75.6 µM; in experiment [4], more than 100 µM; in experiment [5] it was more than 88 µM; in experiment [6], more than 69.2 µM. Further, the TGI in [7], in experiment [8], in experiment [9] and in experiment [10] was more than 100 µM throughout.

With `CC1NOC(=O)C1N=Nc1cccc(Cl)c1` (centres undefined), the TGI in experiment [1] was more than 100 µM; in [2] it was more than 100 µM; in experiment [3] it was more than 100 µM; in [4], more than 100 µM; in experiment [5], 89.9 µM; in [6], more than 100 µM. Moreover, the TGI in [7], in [8], in experiment [9] and in [10] was more than 100 µM in each case.

For the molecule `N#C/C(=C\c1ccc(O)cc1)C(N)=O`, the TGI in experiment [1], in [2], in [3], in [4], in experiment [5] and in [6] was more than 100 µM in each case. Moreover, the TGI in experiment [7], in experiment [8], in [9] and in experiment [10] was more than 100 µM in each case.
